The values below come from US7175844B2, “Methods of modulating fibrosis” (Joslin Diabetes Center, Inc., priority 2000, dated 2007).

What is called Kd is a measure of binding affinity in units of concentration.

One data set relates to Erk. The protocol:
(§1) E) Western Blot Analysis—Immunoprecipitated proteins or 30 μg of total cell lysates were subjected to SDS-gel electrophoresis and electrotransferred to nitrocellulose membrane (Bio-Rad). The membrane was soaked in blocking buffer (phosphate-buffered saline containing 0.1% Tween 20 and 5% bovine serum albumin) for 1 h at room temperature and incubated with primary antibody overnight at 4° C. followed by incubation with horseradish peroxidase-conjugated secondary antibody (Amersham Pharmacia Biotech). Visualization was performed using the enhanced chemiluminescence detection system (ECL, Amersham Pharmacia Biotech) per the manufacturer's instructions.

For data set [1], the system named is CTGF protein. The settings on record: BRPC, 25 ng/ml, after 10 h. How it is done:
as §1

A further data set has as its system Akt. The protocol: as §1
The target of data set [2] is Flt1 (Homo sapiens, UniProt P17948). To be noted: known value; cited from earlier work.
Chain of Flt1 (Homo sapiens, UniProt P17948) (P17948 27-1338, species assumed): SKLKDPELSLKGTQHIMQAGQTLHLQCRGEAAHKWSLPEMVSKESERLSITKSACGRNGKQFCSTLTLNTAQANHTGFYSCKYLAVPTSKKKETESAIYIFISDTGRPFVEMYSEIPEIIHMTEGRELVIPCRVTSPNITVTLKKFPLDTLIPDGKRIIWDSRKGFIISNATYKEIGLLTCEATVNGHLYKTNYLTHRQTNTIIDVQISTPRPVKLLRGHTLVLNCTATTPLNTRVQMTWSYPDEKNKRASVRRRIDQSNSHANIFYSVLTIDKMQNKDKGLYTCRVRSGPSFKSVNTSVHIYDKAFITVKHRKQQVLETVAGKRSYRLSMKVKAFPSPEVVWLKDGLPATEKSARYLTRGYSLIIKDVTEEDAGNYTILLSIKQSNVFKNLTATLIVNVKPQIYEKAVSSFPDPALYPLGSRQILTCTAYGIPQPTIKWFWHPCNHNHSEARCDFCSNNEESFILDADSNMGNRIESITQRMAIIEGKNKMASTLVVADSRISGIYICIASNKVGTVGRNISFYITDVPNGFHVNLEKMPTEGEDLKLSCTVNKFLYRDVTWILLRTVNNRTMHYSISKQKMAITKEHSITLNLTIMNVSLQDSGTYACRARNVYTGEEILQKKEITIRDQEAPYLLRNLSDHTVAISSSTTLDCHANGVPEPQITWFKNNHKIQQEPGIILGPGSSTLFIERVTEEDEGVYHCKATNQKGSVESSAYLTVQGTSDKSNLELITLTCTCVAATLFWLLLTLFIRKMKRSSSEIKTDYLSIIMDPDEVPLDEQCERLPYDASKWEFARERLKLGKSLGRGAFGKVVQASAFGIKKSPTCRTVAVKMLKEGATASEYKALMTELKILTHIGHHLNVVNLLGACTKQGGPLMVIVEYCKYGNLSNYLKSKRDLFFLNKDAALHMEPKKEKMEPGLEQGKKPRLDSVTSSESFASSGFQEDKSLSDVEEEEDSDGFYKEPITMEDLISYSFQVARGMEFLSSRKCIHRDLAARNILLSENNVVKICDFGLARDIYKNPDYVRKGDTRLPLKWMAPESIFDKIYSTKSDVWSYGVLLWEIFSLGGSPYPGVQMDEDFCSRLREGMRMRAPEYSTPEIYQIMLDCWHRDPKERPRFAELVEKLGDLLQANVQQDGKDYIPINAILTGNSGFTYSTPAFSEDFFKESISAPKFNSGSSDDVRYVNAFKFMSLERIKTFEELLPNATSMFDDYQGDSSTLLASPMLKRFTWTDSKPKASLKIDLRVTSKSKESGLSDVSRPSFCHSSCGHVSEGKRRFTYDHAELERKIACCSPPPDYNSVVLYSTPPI
For data set [3], the system named is CTGF protein. The data set is described as follows: CTGF protein expression by Western blot analysis in BREC. To be noted: for CTGF protein expression increase: VEGF 25 ng/ml, TGF-β1 10 ng/ml. It counts as cell-based, bovine. How it is done: as §1
For orientation: A western blot detects proteins with antibodies after separation by electrophoresis.

In data set [4] the target is T1, Flt1 (Bos taurus, UniProt F1MDD9).
T1 construct: endogenous in cells; host or cells: primary bovine retinal pericytes (BRPC)
T1 sequence (F1MDD9 1-1251): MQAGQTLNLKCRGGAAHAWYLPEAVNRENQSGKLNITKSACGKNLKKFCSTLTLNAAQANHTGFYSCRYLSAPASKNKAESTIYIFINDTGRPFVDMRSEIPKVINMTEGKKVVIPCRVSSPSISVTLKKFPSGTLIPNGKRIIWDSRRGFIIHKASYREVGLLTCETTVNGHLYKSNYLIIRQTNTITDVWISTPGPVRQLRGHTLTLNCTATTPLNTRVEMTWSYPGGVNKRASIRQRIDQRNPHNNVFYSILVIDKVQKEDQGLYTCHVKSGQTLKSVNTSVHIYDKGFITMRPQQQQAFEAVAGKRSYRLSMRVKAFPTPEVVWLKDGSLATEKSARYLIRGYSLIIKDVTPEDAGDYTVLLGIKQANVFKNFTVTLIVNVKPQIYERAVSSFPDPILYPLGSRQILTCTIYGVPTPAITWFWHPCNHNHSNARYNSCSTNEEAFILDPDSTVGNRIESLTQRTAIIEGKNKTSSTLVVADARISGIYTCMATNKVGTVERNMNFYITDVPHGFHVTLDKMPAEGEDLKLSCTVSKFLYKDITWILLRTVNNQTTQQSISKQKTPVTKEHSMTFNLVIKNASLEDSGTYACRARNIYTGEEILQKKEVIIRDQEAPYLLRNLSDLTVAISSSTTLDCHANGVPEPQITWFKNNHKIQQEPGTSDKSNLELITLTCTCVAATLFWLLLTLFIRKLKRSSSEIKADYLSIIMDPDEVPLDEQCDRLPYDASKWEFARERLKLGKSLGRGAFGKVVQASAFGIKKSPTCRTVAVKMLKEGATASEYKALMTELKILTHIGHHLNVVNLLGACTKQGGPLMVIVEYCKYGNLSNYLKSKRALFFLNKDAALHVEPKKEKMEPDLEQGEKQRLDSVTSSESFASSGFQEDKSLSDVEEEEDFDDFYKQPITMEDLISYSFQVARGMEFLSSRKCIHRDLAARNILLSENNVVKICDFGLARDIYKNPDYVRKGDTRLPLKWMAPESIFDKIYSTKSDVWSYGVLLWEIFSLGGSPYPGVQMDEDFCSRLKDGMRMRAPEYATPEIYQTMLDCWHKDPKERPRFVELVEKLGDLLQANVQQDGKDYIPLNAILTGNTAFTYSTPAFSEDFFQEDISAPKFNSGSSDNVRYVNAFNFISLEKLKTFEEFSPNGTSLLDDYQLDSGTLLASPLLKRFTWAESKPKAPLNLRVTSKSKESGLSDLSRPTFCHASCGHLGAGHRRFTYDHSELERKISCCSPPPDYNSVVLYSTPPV
The data set is described as follows: Immunoblot of Flt1 immunoprecipitates from BRPC (phosphotyrosine, PI3-kinase p85). It counts as cell-based, bovine. How it is done: (§2) D) Immunoprecipitation—Cells were washed three times with cold phosphate-buffered saline and solubilized in 200 μl of lysis buffer (1% Triton X-100, 50 mmol/liter HEPES, 10 mmol/liter EDTA, 10 mmol/liter sodium pyrophosphate, 100 mmol/liter sodium fluoride, 1 mmol/liter sodium orthovanadate, 1 μg/ml aprotinin, 1 μg/ml leupeptin, and 2 mmol/liter phenylmethylsulfonyl fluoride). After centrifugation at 12,000 rpm for 10 min, 1.0 mg of protein was subjected to immunoprecipitation. To clear the protein extract, protein A-Sepharose (20 μl of a 50% suspension) was added to the cell lysates, after which they were incubated for 1 h, followed by centrifugation and collection of the supernatant. A specific rabbit anti-KDR or Flt1 antibody was added and rocked at 4° C. for 2 h; 20 μl of protein A-Sepharose was then added, and the sample was rocked for another 2 h at 4° C. For denaturation, protein A-Sepharose antigen-antibody conjugates were separated by centrifugation, washed five times, and boiled for 3 min in Laemmli sample buffer.

Data set [5] concerns CTGF mRNA. As to the kind of experiment: CTGF mRNA expression by Northern blot analysis in BRPC. The data set is classed as cell-based, bovine. The settings on record: for CTGF mRNA levels, maximum increase: 25 ng/ml, after 9 h. The protocol:
(§3) Since BREC and BRPC may express both KDR and Flt1, we examined the effects of P1GF, a Flt1-specific ligand, on the induction of CTGF gene expression in vascular cells.
(§4) B) Cell Culture—Primary cultures of bovine retinal endothelial cells (BREC) and pericytes (BRPC) were isolated by homogenization and a series of filtration steps as described previously. BREC were subsequently cultured with endothelial cell basal medium supplemented with 10% plasma-derived horse serum, 50 mg/liter heparin, and 50 μg/ml endothelial cell growth factor. BRPC were cultured in Dulbecco's modified Eagle's medium with 5.5 mM glucose and 20% fetal bovine serum. Cells were cultured in 5% CO2 at 37° C., and media were changed every 3 days. Cells were characterized for their homogeneity by immunoreactivity with anti-factor VIII antibody for BREC and with monoclonal antibody 3G5 for BRPC. […] Only cells from passages 2 through 7 were used for the experiments.
(§5) H) Northern Blot Analysis—Total RNA was isolated using acid-guanidinium thiocyanate, and Northern blot analysis was performed. Total RNA (20 μg) was electrophoresed through 1% formaldehyde-agarose gels and then transferred to a nylon membrane. ^32P-Labeled cDNA probes were generated by use of labeling kits (Megaprime DNA labeling systems, Amersham Pharmacia Biotech). After ultraviolet cross-linking using a UV cross-linker (Stratagene, La Jolla, Calif.), blots were pre-hybridized, hybridized, and washed in 0.5×SSC, 5% SDS at 65° C. with 4 changes over 1 h. All signals were analyzed using a PhosphorImager, and lane loading differences were normalized.

Another data set addresses T2, KDR (Bos taurus, UniProt A0AAA9SPC9).
T2 construct: endogenous in cells; host or cells: primary bovine retinal endothelial cells (BREC)
As to the kind of experiment: Immunoblot of KDR immunoprecipitates from BREC (phosphotyrosine, PI3-kinase p85). It counts as cell-based, bovine. The protocol:
as §2, §1

Data set [6] has as its system CTGF mRNA. The data set is described as follows: CTGF mRNA expression by Northern blot analysis in BREC. To be noted: for CTGF mRNA levels increase (comparative study): VEGF 25 ng/ml, TGF-β1 10 ng/ml. It counts as cell-based, bovine. The protocol: as §3, §4, §5
Data set [7] deals with VEGF-induced CTGF mRNA expression. The data set is described as follows: Effect on VEGF-induced CTGF mRNA expression in BRPC. The data set is classed as cell-based, bovine. To be noted: for effect on VEGF-induced CTGF mRNA expression: pretreatment GF 109203X 1 μM or PD98059 20 μM. How it is done: as §5
(§6) I) Analysis of CTGF mRNA Half-life—CTGF mRNA half-life experiments were carried out using BREC and BRPC. […] Transcription was inhibited by the addition of actinomycin D (5 μg/ml).

The test system is the same in data set [8]. The data set is described as follows: Effect on VEGF-induced CTGF mRNA expression in BREC. It counts as cell-based, bovine. How it is done:
as §5, §6

In the next data set the target is Flt1 (VEGFR1) (bovine). As to the kind of experiment: cell-based or functional assay.
Data set [9] addresses KDR/Flk1 (VEGFR2) (bovine). The data set is described as follows: cell-based or functional assay.
[10] abbreviates: VEGF 25 ng/ml + cycloheximide 10 μg/ml, 6 h.
Setting [11] is: inhibitor pretreatment (wortmannin 100 nM), VEGF 25 ng/ml 6 h.
Where [12] appears, read: cycloheximide 10 μg/ml, VEGF 25 ng/ml, 6 h.

Like-named read-outs stand apart in the source and are kept apart here.

T2 sequence (A0AAA9SPC9 20-1356): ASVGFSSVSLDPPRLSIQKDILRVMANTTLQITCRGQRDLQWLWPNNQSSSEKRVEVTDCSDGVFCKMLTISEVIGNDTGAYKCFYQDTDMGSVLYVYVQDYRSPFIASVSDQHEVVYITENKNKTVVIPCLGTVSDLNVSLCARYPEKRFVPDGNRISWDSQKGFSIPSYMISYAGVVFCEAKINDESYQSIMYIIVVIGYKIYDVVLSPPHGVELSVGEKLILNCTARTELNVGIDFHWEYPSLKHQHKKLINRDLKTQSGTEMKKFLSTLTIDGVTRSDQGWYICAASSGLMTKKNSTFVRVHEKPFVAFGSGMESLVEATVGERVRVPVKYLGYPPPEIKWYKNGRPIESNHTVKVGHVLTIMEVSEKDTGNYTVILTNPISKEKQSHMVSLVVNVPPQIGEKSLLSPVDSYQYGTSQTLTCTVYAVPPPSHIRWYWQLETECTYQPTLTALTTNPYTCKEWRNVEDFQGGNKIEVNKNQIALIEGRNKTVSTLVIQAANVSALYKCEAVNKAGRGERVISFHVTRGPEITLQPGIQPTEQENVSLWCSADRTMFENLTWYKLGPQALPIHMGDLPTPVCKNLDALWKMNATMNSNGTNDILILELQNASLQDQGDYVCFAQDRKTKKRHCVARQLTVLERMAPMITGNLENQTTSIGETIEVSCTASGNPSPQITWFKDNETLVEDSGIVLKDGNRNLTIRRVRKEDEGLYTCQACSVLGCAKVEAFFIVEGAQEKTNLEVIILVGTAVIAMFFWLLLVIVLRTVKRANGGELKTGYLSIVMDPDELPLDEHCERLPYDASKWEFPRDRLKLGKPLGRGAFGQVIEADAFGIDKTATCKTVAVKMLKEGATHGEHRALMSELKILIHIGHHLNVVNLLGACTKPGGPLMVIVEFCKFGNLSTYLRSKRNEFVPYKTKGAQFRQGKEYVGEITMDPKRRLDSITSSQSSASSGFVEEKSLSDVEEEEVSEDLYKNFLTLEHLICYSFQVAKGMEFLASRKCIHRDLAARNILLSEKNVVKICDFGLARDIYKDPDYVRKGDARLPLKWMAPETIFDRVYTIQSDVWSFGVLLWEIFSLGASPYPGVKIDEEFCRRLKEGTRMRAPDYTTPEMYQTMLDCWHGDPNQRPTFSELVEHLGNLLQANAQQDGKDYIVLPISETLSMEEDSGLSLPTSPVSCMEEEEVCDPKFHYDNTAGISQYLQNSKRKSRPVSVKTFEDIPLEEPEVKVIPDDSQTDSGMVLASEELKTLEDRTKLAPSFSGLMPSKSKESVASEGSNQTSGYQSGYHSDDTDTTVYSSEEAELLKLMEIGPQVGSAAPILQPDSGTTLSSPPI

In the case of VEGF, the “phosphorylation of Erk” value in the data set on Erk (BREC) stood at 5.8 fold. In addition, the Erk phosphorylation entry in the data set with Erk (BRPC) was “No effect”. The “level of CTGF protein” value in the data set with CTGF protein [1] was “increased”; with CTGF protein [3] (25 ng/ml, after 10 h) it was “increased”. In addition, the “phosphorylation of Akt” value worked out at 3.1 fold in the data set with Akt (BREC) and 2.6 fold in the data set on Akt (BRPC). Besides, on Flt1 [2], the Kd is 10 to 100 pM. Also, the “CTGF protein expression increase” value in the data set with CTGF protein [3] is 2.5±0.4 fold. Also, the “interactions of Flt1 and p85 subunit of PI3-kinase” value with Flt1 [4] is given as “increased”. Moreover, the “tyrosine phosphorylation of Flt1” value at Flt1 [4] is listed as “increased”. In addition, the “CTGF mRNA levels, maximum increase” value in the data set on CTGF mRNA [5] worked out at 2.0±0.22 fold; in the data set on CTGF mRNA [6] (25 ng/ml, after 6 h), 3.1±0.70 fold. The “concentration of maximal increase of CTGF mRNA” value in the data set on CTGF mRNA [5] (6 h of stimulation) and with CTGF mRNA [6] (6 h of stimulation) was 25 ng/mL in each case. The “lowest concentration with significant increase of CTGF mRNA” value in the data set on CTGF mRNA [5] (6 h of stimulation) and in the data set with CTGF mRNA [6] (6 h of stimulation) was 0.25 ng/mL in each case. The “CTGF mRNA increase with cycloheximide, compared with cycloheximide alone” value in the data set on CTGF mRNA [5] (setting [10]) was 2.5±0.40 fold; with CTGF mRNA [6] (setting [10]) it was 2.4±0.41 fold. Further, the “interactions of KDR and p85 subunit of PI3-kinase” value in the data set with KDR is listed as “promoted”. Also, the “tyrosine phosphorylation of KDR” value at KDR is “promoted”. Also, the “CTGF mRNA levels increase (comparative study)” value in the data set with CTGF mRNA [6] is 3.0±0.3 fold.
Consider `COC[C@H]1OC(=O)c2coc3c2[C@@]1(C)C1=C(C3=O)[C@@H]2CCC(=O)[C@@]2(C)C[C@H]1OC(C)=O` [wortmannin], for which the “inhibition of the effects of VEGF on CTGF mRNA expression” value in data set [7] (setting [11]) turned out to be 78±22%; in data set [8] (setting [11]), 88±6.5%.
As to `CN(C)CCCn1cc(C2=C(c3c[nH]c4ccccc34)C(=O)NC2=O)c2ccccc21` [GF 109203X], the “effect on VEGF-induced CTGF mRNA expression” value in data set [7] (VEGF 25 ng/ml 6 h) is reported as “Neither GF 109203X nor PD98059 had significant effects”; in data set [8] (pretreatment GF 109203X 1 μM or PD98059 20 μM, VEGF 25 ng/ml 6 h), “Neither GF 109203X nor PD98059 had significant effects”.
In the case of placenta growth factor (P1GF) (ligand), the CTGF mRNA (Northern blot, BRPC, 25 ng/ml P1GF, peak after 9 h) in the data set with Flt1 (VEGFR1) (bovine) is 1.9 fold.
Consider `C[C@@H]1C[C@@H]([C@H](O)CC2CC(=O)NC(=O)C2)C(=O)[C@@H](C)C1` [Cycloheximide, cycloheximide], for which the “effect on VEGF-induced increase of CTGF mRNA” value in [7] (setting [12]) and in data set [8] (setting [12]) was “did not prevent” in each case.
Consider “Vascular endothelial growth factor (VEGF) (ligand)”, for which the CTGF mRNA (Northern blot, BRPC, 25 ng/ml VEGF, maximum after 9 h) with Flt1 (VEGFR1) (bovine) came out at 2 fold. For the same molecule, the CTGF mRNA (Northern blot, BREC, 25 ng/ml VEGF, maximum after 6 h) in [9] worked out at 3.1 fold.
`COc1cccc(-c2cc(=O)c3ccccc3o2)c1N` [PD98059]: in [7] (VEGF 25 ng/ml 6 h), the “effect on VEGF-induced CTGF mRNA expression” value was “Neither GF 109203X nor PD98059 had significant effects”.
On to “TGF-β1: transforming growth factor-β1, from R & D Systems”, for which the “CTGF protein expression increase” value in the data set on CTGF protein [3] is 2.8±0.8 fold. For the same molecule, the “CTGF mRNA levels increase (comparative study)” value in the data set with CTGF mRNA [6] is 3.3±0.5 fold.

B1: P1GF: placenta growth factor, a Flt1 receptor-specific ligand, from R & D Systems (protein, UniProt P49763 19-221, looked up)
Placenta growth factor: LPAVPPQQWALSAGNGSSEVEVVPFQEVWGRSYCRALERLVDVVSEYPSEVEHMFSPSCVSLLRCTGCCGDENLHCVPVETANVTMQLLKIRSGDRPSYVELTFSQHVRCECRHSPGRQSPDMPGDFRADAPSFLPPRRSLPMLFRMEWGCALTGSQSAVWPSSPVPEEIPRMHPGRNGKKQQRKPLREKMKPERCGDAVPRR
As for B1, in the data set with Flt1 [4], the “interactions of Flt1 and p85 subunit of PI3-kinase” value was “increased”; the “tyrosine phosphorylation of Flt1” value is on record as “increased”. The “CTGF mRNA levels, maximum increase” value with CTGF mRNA [5] came to 1.9±0.30 fold. For the same molecule, in the data set with KDR, the “interactions of KDR and p85 subunit of PI3-kinase” value is “not”; the “tyrosine phosphorylation of KDR” value is listed as “not”. The “CTGF mRNA levels after stimulation” value in the data set on CTGF mRNA [6] (25 ng/ml) is “not affected”.
